Results published in PMC10385579, “Design, Synthesis, and Biological Evaluation of Indole-2-carboxamides as Potential Multi-Target Antiproliferative Agents” (Pharmaceuticals, 2023).

Legend:
[1] = tested on: human epithelial (A-549) cancer cell line; experiment: Antiproliferative assay, A-549; assay type: cell-based; settings: A549, read-out: Antiproliferative Activity IC50 ± SEM, A-549
Experimental: (§1) 4.2.1.2. Assay for antiproliferative effect
(§2) To explore the antiproliferative potential of compounds propidium iodide fluorescence assay was performed using different cell lines such as Panc-1 (pancreas cancer cell line), MCF-7 (breast cancer cell line), HT-29 (colon cancer cell line) and A-549 (epithelial cancer cell line), respectively.
(§3) To calculate the total nuclear DNA, a fluorescent dye (propidium iodide, PI) is used which can attach to the DNA, thus offering a quick and precise technique. PI cannot pass through the cell membrane and its signal intensity can be considered as directly proportional to quantity of cellular
(§4) DNA. Cells whose cell membranes are damaged or have changed permeability are counted as dead ones. The assay was performed by seeding the cells of different cell lines at a density of 3000-7500 cells/well (in200μl medium) in culture plates followed by incubation for 24h at 37 °C in humidified 5%CO2/95% air atmospheric conditions. The medium was removed; the compounds were added to the plates at 10 μM concentrations (in 0.1% DMSO) in triplicates, followed by incubation for 48h. DMSO (0.1%) was used as control. After incubation, medium was removed followed by the addition of PI (25 μl, 50μg/mL in water/medium) to each well of the plates. At - 80 °C, the plates were allowed to freeze for 24 h, followed by thawing at 25 °C. A fluorometer (Polar-Star BMG Tech) was used to record the readings at excitation and emission wavelengths of 530 and 620 nm for each well. The percentage cytotoxicity of compounds was calculated using […]
(§5) Where ATC= Absorbance of treated cells and AC= Absorbance of control. Erlotinib was used as positive control in the assay.

[2] = tested on: four human cancer cell lines (A-549, MCF-7, Panc-1, HT-29); experiment: Antiproliferative assay, average over the four cancer cell lines (GI50); assay type: cell-based; settings: average of the four cancer cell lines
Experimental: See Supplementary Materials.
as §1
To explore the antiproliferative potential of compounds propidium iodide fluorescence assay was performed using different cell lines such as Panc-1 (pancreas cancer cell line), MCF-7 (breast […]
as §3
DNA. Cells whose cell membranes are damaged or have changed permeability are counted as dead ones. The assay was performed by seeding the cells of different cell lines at a density of 3000- […]
The medium was removed; the compounds were added to the plates at 10 μM concentrations (in 0.1% DMSO) in triplicates, followed by incubation for 48h. DMSO (0.1%) was used as control. After incubation, medium was removed followed by the addition of PI (25 μl, 50μg/mL in water/medium) to each well of the plates. At - 80 °C, the plates were allowed to freeze for 24 h, followed by thawing at 25 °C. A fluorometer (Polar-Star BMG Tech) was used to record the readings at excitation and emission wavelengths of 530 and 620 nm for each well. The percentage cytotoxicity of compounds was calculated using […]
Where ATC= Absorbance of treated cells and AC= Absorbance of control. […]
positive control in the assay.

[3] = tested on: breast cancer (MCF-7) cell line; experiment: Antiproliferative assay, MCF-7; assay type: cell-based; settings: Homo sapiens, MCF7; read-out: Antiproliferative Activity IC50 ± SEM, MCF-7
Experimental: as §1, §2, §3, §4, §5

[4] = tested on: colon cancer (HT-29) cell line; experiment: Antiproliferative assay, HT-29; assay type: cell-based; settings: Homo sapiens, read-out: Antiproliferative Activity IC50 ± SEM, HT-29
Experimental: as §1, §2, §3, §4, §5

[5] = Cell viability assay (MTT) on MCF-10A; assay type: cell-based; settings: human, MCF-10A mammary gland epithelial cells, MCF-10A cells, four days
Experimental: To assess the viability of compounds IV and Va–i, the human mammary gland epithelial (MCF-10A) cell line was exploited. Compounds IV and Va–i were cultured for four days on MCF-10A cells before being evaluated for vitality using the MTT assay.
To test the viability of the new compounds, the human mammary gland epithelial (MCF-10A) cell line was used. Compounds IV and Va–i were incubated on MCF-10A cells for four days before being tested for viability using the MTT assay. See Supplementary Materials.
4.2. Biological evaluation
4.2.1. Cytotoxic activity using MTT Assay and evaluation of IC50
MTT assay was performed to investigate the effect of the synthesized compounds on mammary epithelial cells (MCF-10A). The cells were propagated in medium consisting of Ham's F-12 medium/ Dulbecco's modified Eagle's medium (DMEM) (1:1) supplemented with 10% foetal calf serum, 2 mM glutamine, insulin (10 μg/mL), hydrocortisone (500 ng/mL) and epidermal growth factor (20 ng/mL). Trypsin ethylenediamine tetra acetic acid (EDTA) was used to passage the cells after every 2-3 days. 96-well flat-bottomed cell culture plates were used to seed the cells at a density of 10^4 cells mL-1. The medium was aspirated from all the wells of culture plates after 24 h followed by the addition of synthesized compounds (in 200 μL medium to yield a final concentration of 0.1% (v/v) dimethyl sulfoxide) into individual wells of the plates. Four wells were designated to a single compound. The plates were allowed to incubate at 37°C for 96 h. Afterwards, the medium was aspirated and 3-[4,5-dimethylthiazol-2-yl]-2,5-diphenyltetrazolium bromide (MTT) (0.4 mg/mL) in medium was added to each well and subsequently incubated for 3 h. The medium was aspirated and 150 μL dimethyl sulfoxide (DMSO) was added to each well. The plates were vortexed followed by the measurement of absorbance at 540 nm on a microplate reader. The results were presented as inhibition (%) of proliferation in contrast to controls comprising 0.1%

[6] = tested on: pancreatic cancer (Panc-1) cell line; experiment: Antiproliferative assay, Panc-1; assay type: cell-based; settings: Homo sapiens, read-out: Antiproliferative Activity IC50 ± SEM, Panc-1
Experimental: as §1, §2, §3, §4, §5

Structure (SMILES) | IC50 [1] [nM] | GI50 [2] [nM] | IC50 [3] [nM] | melting point [°C] | IC50 [4] [nM] | viability at 96 h, 50 µM [5] [%] | IC50 [6] [nM]
NCC(c1ccccc1)c1c(-c2ccccc2)[nH]c2ccccc12 (stereo not drawn) [Compound IV, 2-phenyl-2-(2-phenyl-1H-indol-3-yl)ethan-1-amine] | 102 ± 10 | 104 | 106 ± 10 | 167 to 169 | 104 ± 10 | 92 | 104 ± 10
Cc1c(C(=O)NCC(c2ccccc2)c2c(-c3ccccc3)[nH]c3ccccc23)[nH]c2ccc(Cl)cc12 (stereo not drawn) [Vb, 5-Chloro-3-methyl-N-(2-phenyl-2-(2-phenyl-1H-indol-3-yl)ethyl)-1H-indole-2-carboxamide] | 58 ± 5 | 59 | 61 ± 6 | 135 to 137 | 59 ± 5 | 88 | 58 ± 5
C#Cc1cccc(Nc2ncnc3cc(OCCOC)c(OCCOC)cc23)c1 [Erlotinib, reference compound] | 30 ± 3 | – | 40 ± 3 | – | 30 ± 3 | – | 30 ± 3
CCc1c(C(=O)NCC(c2ccccc2)c2c(-c3ccccc3)[nH]c3ccccc23)[nH]c2ccc(Cl)cc12 (stereo not drawn) [Compound Vc, 5-Chloro-3-ethyl-N-(2-phenyl-2-(2-phenyl-1H-indol-3-yl)ethyl)-1H-indole-2-carboxamide] | 54 ± 5 | 56 | 57 ± 5 | 110 to 112 | 55 ± 5 | 91 | 56 ± 5
CCc1c(C(=O)NCC(c2ccccc2)c2c(-c3ccccc3)[nH]c3ccccc23)oc2ccc(Cl)cc12 (stereo not drawn) [Vi, 5-Chloro-3-ethyl-N-(2-phenyl-2-(2-phenyl-1H-indol-3-yl)ethyl)benzofuran-2-carboxamide] | 86 ± 8 | 86 | 89 ± 8 | 225 to 227 | 85 ± 8 | 89 | 85 ± 8
CCc1c(C(=O)NCC(c2ccccc2)c2c(-c3ccccc3)[nH]c3ccccc23)[nH]c2ccc(Br)cc12 (stereo not drawn) [Vd, 5-Bromo-3-ethyl-N-(2-phenyl-2-(2-phenyl-1H-indol-3-yl)ethyl)-1H-indole-2-carboxamide] | 64 ± 6 | 66 | 68 ± 6 | 130 to 132 | 66 ± 6 | 89 | 66 ± 6
